This is an account of results in patent publication US20030212147A1, “Enzyme activated chemotherapy of liver cancer” (priority 2003, published 2003).

The structures appear in SMILES notation. “Also recorded” adds a separate entry of the source.

For one data set, the system named is HepG2 cells. The data set is described as follows: LDH-release cytotoxicity assay in HepG2 cells cultured in isotonic or hypertonic (AR-inducing) medium. Type of data set: cell-based, human. The conditions noted are these: for effect on HepG2 cells (LDH release): 50 μM ND; for toxic effect (LDH released into the medium): 5 hours. As to the method: HepG2 cells, a human liver cell line, were purchased from the American Type Culture Collection (Rockville, Md.). The basic (isotonic) medium was MEM medium supplemented with 10% fetal bovine serum, 100 U/ml penicillin, 100 μg/ml streptomycin, 0.1 mM MEM non-essential amino acids, and 1 mM sodium pyruvate. Medium was made hypertonic by adding NaCl to 100 mM, and the osmolarity was about 500 mosmol/kg as determined by osmometer. ND was dissolved in 20% ethanol to make a 50 mM stock solution. NQ was dissolved in 100% ethanol to make a 50 mM stock solution. AL1576 was dissolved in 20 mM NaOH to make a 20 mM stock solution.
Cells were first cultured in isotonic medium until 70% confluent. The medium was then made hypertonic by NaCl and incubated for 72 hours. The cells were then seeded onto 24-well plate at 8×10^4 cells/well and incubated for 24 hours in hypertonic medium. Cells for isotonic control were processed in parallel except that no NaCl was added. ND and AR inhibitor AL1576 were added as indicated.
Cytotoxicity was measured by the percent of LDH (lactate dehydrogenase) released into the medium. LDH activity was determined by Cytotoxicity Detection Kit. The optical density of the colored product was measured at 492 and 690 nm by SpectraMax 340 Microplate reader (Molecular Devices). LDH released into the medium was measured by taking samples of the medium. Total LDH was determined by taking samples of cell extracts lysed by Triton X-100 at a final concentration of 1%.
Background: LDH leaks from cells whose membrane has failed.

The format of data set [1] is physicochemical. The text has this:
Naphthalene is insoluble in water. […] Accordingly, ND, the metabolized product of naphthalene (see FIG. 1), rather than naphthalene, was used to test the cytotoxic activity of the drug that is activated AR overproduced by HepG2 cells.

The conditions of data set [2]: rabbit cataract model; taken as the likely toxic level for oral administration; cited from earlier work.

Consider `O=C1NC(=O)C2(N1)c1cc(F)ccc1-c1ccc(F)cc12` [AL1576, 2,7-difluorospirofluorene-9,5′-imidazolidine-2′4′-dione, reference compound], for which, in the data set on HepG2 cells (HepG2 cells in hypertonic medium with ND), the “protection of HepG2 cells against the toxic effects of ND by the AR inhibitor” value is “can protect these cells against the toxic effects of ND”.
Turning to `OC1C=Cc2ccccc2C1O` (stereo not shown) [ND, naphthalene-1,2-dihydrodiol], the “effect on HepG2 cells (LDH release)” value in the data set with HepG2 cells (hypertonic medium) and with HepG2 cells (isotonic medium) was “no effect” each time. Further, the “toxic effect (LDH released into the medium)” value in the data set on HepG2 cells (500 μM ND, HepG2 cells in hypertonic medium (AR overexpressed)) is “highly toxic”; in the data set on HepG2 cells (500 μM ND, HepG2 cells in isotonic medium), “no sign of toxic effects; also recorded: no toxic effect”. Further, in the data set on HepG2 cells (500 μM ND, hypertonic versus isotonic medium), the “LDH released relative to that released by control cells (isotonic medium)” value was “more than 10 times”. For the same compound, the “sensitivity of HepG2 cells to ND in hypertonic versus isotonic medium” value in the data set with HepG2 cells (hypertonic versus isotonic medium) stood at 10 times.
Consider `c1ccc2ccccc2c1` [Naphthalene], for which, in data set [1], the “behaviour when added to the medium” value is given as “quickly precipitates” and the solubility in water entry is listed as “insoluble”. In addition, in data set [2], the “dose at which cataract and degeneration of the retina develop” value is reported as “about 1 g/kg body weight”.
